# Data: the supplement of paper PMC4858399
# Columns and labels:
# [1] = tested on: Caenorhabditis elegans N2; experiment: mean nematode size ln(EXT) after 48 h, plate-adjusted (DMSO control set to 6) (ln(EXT), control-adjusted); higher = larger nematodes / less growth inhibition; details: exposure time 48 h
# Procedure, shortened: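 Synchronised C. elegans N2 L1 larvae were grown for 48 h at 20°C in K-medium containing killed OP50, 1% DMSO and 0.5–200 µM chemical, at 50 per well and 4–6 wells per treatment. The Biosort recorded extinction for each worm, and a growth model removed debris. Worm size was obtained by natural-logging these values and averaging them per well. For plate adjustment, the vehicle control mean was subtracted and 6 was added.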
# [2] = tested on: Caenorhabditis elegans N2; experiment: lowest effective concentration for larval growth inhibition (size below effect threshold); higher = less potent; details: exposure time 48 h
# Procedure, shortened: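 In 96-well plates, 50 C. elegans N2 L1 larvae per well were cultured at 20°C for 48 h in K-medium with killed bacteria and 1% DMSO, plus the chemical at 0.5, 1, 5, 10, 50, 100 or 200 µM. Size was measured as per-worm extinction on a Biosort and log-transformed into well means. Taking the first dose where the plate-adjusted mean size sits under 5.665 and stays there at higher doses gives the lowest effective concentration.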
Structure (SMILES),mean nematode size ln(EXT) (ln) ([1]; 0.5 µM),mean nematode size ln(EXT) (ln) ([1]; 1 µM),mean nematode size ln(EXT) (ln) ([1]; 5 µM),mean nematode size ln(EXT) (ln) ([1]; 10 µM),mean nematode size ln(EXT) (ln) ([1]; 50 µM),mean nematode size ln(EXT) (ln) ([1]; 100 µM),mean nematode size ln(EXT) (ln) ([1]; 200 µM),lowest effective concentration [2] [µM]
CCCCC(CC)C(=O)OCCOCCOCCOC(=O)C(CC)CCCC (stereo not drawn) [Tri(ethylene glycol) bis(2-ethylhexanoate)],5.84,5.86,6,5.97,5.86,5.84,5.79,> 200
"CCCCC(CC)COC(=O)c1ccccc1C(=O)O (stereo not drawn) [Phthalic acid, mono-2-ethylhexyl ester]",5.83,5.76,5.77,6.08,6.11,6.44,5.88,> 200
O=[N+]([O-])c1ccc(O)cc1 [Sodium p-nitrophenolate],5.95,5.97,5.92,5.98,6.15,5.81,5.87,> 200
CCCC(=O)O [Butanoic acid],5.86,5.86,5.86,5.86,5.94,6,5.71,> 200
COCCO [Methyl cellusolve],5.86,5.94,6.08,6.07,5.99,6.03,6.06,> 200
CCCCCC(=O)O [Hexanoic acid],5.99,5.88,5.83,5.84,5.83,5.87,5.79,> 200
COC(=O)NS(=O)(=O)c1ccc(N)cc1 [Asulam],6.06,5.99,5.51,6.04,5.49,5.99,5.83,> 200
C=CC(=C)CCC=C(C)C [Myrcene],5.79,5.75,5.76,5.75,5.73,5.71,5.71,> 200
c1ccc(OP(Oc2ccccc2)Oc2ccccc2)cc1 [Triphenyl phosphite],5.86,5.75,5.77,5.81,5.75,5.95,5.72,> 200
CCCOc1ccc(S(=O)(=O)N2CCN(CC)CC2)cc1-c1nc2c(CC)n(Cc3ccccn3)nc2c(=O)[nH]1,5.7,6.03,5.83,5.88,5.91,5.88,5.69,> 200
CC(C)(O)c1ccc(CNC(=O)c2cccnc2Oc2ccc3nonc3c2)cc1,5.94,5.81,5.9,5.71,5.92,5.81,5.8,> 200
NCCO [Ethanolamine],5.86,5.87,5.79,5.73,5.75,5.76,5.76,> 200
CCCN(CCC)N=O [N-Nitrosodipropylamine],5.88,5.93,5.92,5.84,5.87,5.72,5.97,> 200
COc1ccc2sc(C(=O)Nc3nnn[nH]3)c(OC(C)C)c2c1,5.89,5.99,5.89,6.11,5.82,5.86,6.09,> 200
CC(C)CCCCCCOC(=O)c1ccc(C(=O)OCCCCCCC(C)C)c(C(=O)OCCCCCCC(C)C)c1 [Triisononyl Trimellitate],5.94,5.89,5.94,5.86,5.81,5.73,5.68,> 200
"CCc1cccc(CC)c1N [2,6-Diethylaniline]",5.78,5.83,5.81,5.8,5.82,5.84,5.68,> 200
Cn1ccnc1S [Methimazole],5.77,5.89,5.88,5.83,5.91,5.9,5.95,> 200
COc1cc(S(=O)(=O)O)c(C)cc1N=Nc1c(O)ccc2cc(S(=O)(=O)O)ccc12 [Allura red],5.71,5.75,5.76,5.79,5.72,5.67,5.86,> 200
CN(C)C(=O)NC1(c2ccccc2)CCN(CCCC2(c3ccc(Cl)c(Cl)c3)CCCN(C(=O)c3ccccc3)C2)CC1 (stereo in doubt),5.96,5.67,5.69,5.74,5.62,5.35,5.63,50
CCC(C)=NO [2-Butanone oxime],5.68,5.89,6.05,5.8,5.82,5.68,6.2,> 200
CCN(C(=O)c1cc(C)cc(OC[C@H](C)Nc2ccncc2)c1)C(C)C,5.67,5.78,5.59,5.63,5.56,5.61,5.82,> 200
